The structures appear in SMILES notation.

This passage reports IC50 results from patent US12552793B2, “Purine derivative and medical use thereof” (KANGBAIDA (SICHUAN) BIOTECHNOLOGY CO., LTD., priority 2019, dated 2026).

The assay has as its target DNA-PK kinase (Homo sapiens (Human), UniProt P78527). Kind of assay: biochemical.
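Note: enzyme inhibition of DNA-PK with kinase activity read out by chemiluminescence on a microplate reader after adding a kinase detection reagent.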

Procedure: Inhibition of DNA-PK Kinase
The inhibitory activity of the compounds against DNA-PK kinase was determined using a DNA-PK kinase assay kit (purchased from Promega, Cat. No. V4107, Batch No. 0000366495). The results were quantified using chemiluminescence, specifically as follows: • i. ADP-fluorescence standard curves at different concentrations were constructed according to the instructions of the kit; • ii. reaction systems (5 L) were prepared in a 384-well white plate; 1 μL of a compound (concentration gradients 1 μM, 200 nM, 40 nM, 8 nM, 1.6 nM, 0.32 nM, 0.064 nM and 0.013 nM were set for each compound), 20 units of DNA-PK kinase, 0.2 μg/μL substrate, 10 μg/μL DNA, 50 μM ATP and 1% DMSO were successively added to each well; • iii. the mixtures were well mixed, centrifuged (1000 rpm, 30 s), and incubated at 37° C. for 60 min; • iv. the reactions were terminated by adding 5 μL of ADP-Glo™ Reagent; the mixtures were well mixed, centrifuged (1000 rpm, 30 s), and incubated at room temperature for 40 min; • v. 10 μL of Kinase Detection Reagent was added; the mixtures were well mixed by shaking, centrifuged (1000 rpm, 30 s), and incubated at room temperature for 30 min; • vi. fluorescence values were measured using a microplate reader (Thermo fisher, Varioskan LUX). IC50 was calculated using GraphPad Prism 8.

For the compound `Cc1cc2ncnn2cc1Nc1ncc2c(n1)n(C13CC4CC(C1)C(O)C(C4)C3)c(=O)n2C` (stereo not shown) [Compound 18-2, 9-(4-Hydroxyadamantan-1-yl)-7-methyl-2-((7-methyl-[1,2,4]triazolo[1,5-a]pyridin-6-yl)amino)-7,9-dihydro-8H-purin-8-one], the IC50 is 0.13 nM.

For orientation: IC50 means the concentration needed to halve the response being measured. Read a high IC50 as lower potency.
